From the NIST ThermoML archive (doi:10.1016/j.jct.2005.03.027)

Key:
[1] = refractive index (Na D-line) (dimensionless); conditions: 293.15 K; 101.33 kPa; Liquid; Standard Abbe refractometry
[2] = 101 kPa, Liquid
[3] = xn = mol fraction of the nth substance listed; conditions: 101 kPa, Liquid

BrC(Br)C(Br)Br [1,1,2,2-tetrabromoethane]
Conditions	refractive index
[1]	1.63535

[2]
Conditions	mass density [kg/m3]	viscosity [mPa·s]
293.15 K	2963.2	10.94
303.15 K	2939.86	8.413

BrC(Br)C(Br)Br [1,1,2,2-tetrabromoethane] + CCCCCCCCCCO
[3]
Conditions	mass density, 293.15 K [kg/m3]	mass density, 303.15 K [kg/m3]	viscosity, 293.15 K [mPa·s]	viscosity, 303.15 K [mPa·s]
x1 = 0.1023	968.19	960.09	14.09	9.449
x1 = 0.202	1114.37	1104.97	13.66	9.246
x1 = 0.3012	1272.36	1261.57	13.24	9.048
x1 = 0.4012	1446.62	1434.34	12.82	8.863
x1 = 0.5007	1636.66	1622.78	12.43	8.701
x1 = 0.6006	1847.04	1831.45	12.06	8.57
x1 = 0.7011	2081.74	2064.32	11.74	8.482
x1 = 0.8006	2340.68	2321.36	11.45	8.437
x1 = 0.9006	2632.79	2611.47	11.19	8.422
x1 = 1	2963.2	2939.86	10.94	8.413

BrC(Br)C(Br)Br [1,1,2,2-tetrabromoethane] + CCCCCCCCO
[3]
Conditions	mass density, 293.15 K [kg/m3]	mass density, 303.15 K [kg/m3]	viscosity, 293.15 K [mPa·s]	viscosity, 303.15 K [mPa·s]
x1 = 0.099	–	980.93	–	6.446
x1 = 0.101	989.26	–	9.28	–
x1 = 0.1999	–	1151.32	–	6.535
x1 = 0.2013	1161.15	–	9.347	–
x1 = 0.2997	1338.99	–	9.426	–
x1 = 0.3001	–	1327.63	–	6.646
x1 = 0.3994	1529.17	–	9.527	–
x1 = 0.3995	–	1516.19	–	6.774
x1 = 0.5002	1732.98	–	9.661	–
x1 = 0.5006	–	1718.29	–	6.947
x1 = 0.5987	–	1931.52	–	7.155
x1 = 0.6003	1947.95	–	9.831	–
x1 = 0.6993	–	2157.22	–	7.398
x1 = 0.6998	2175.4	–	10.04	–
x1 = 0.799	–	2399.36	–	7.708
x1 = 0.7998	2419.28	–	10.32	–
x1 = 0.8992	–	2662.77	–	8.065
x1 = 0.9011	2684.42	–	10.63	–
x1 = 1	2963.2	2939.86	10.94	8.413

BrC(Br)C(Br)Br [1,1,2,2-tetrabromoethane] + CCCCCCCO
[3]
Conditions	mass density, 293.15 K [kg/m3]	mass density, 303.15 K [kg/m3]	viscosity, 293.15 K [mPa·s]	viscosity, 303.15 K [mPa·s]
x1 = 0.099	1001.11	992.57	7.314	5.033
x1 = 0.1999	1189.38	1179.18	7.577	5.262
x1 = 0.3001	1383.2	1371.29	7.86	5.513
x1 = 0.3995	1582.25	1568.62	8.171	5.801
x1 = 0.5006	1792.24	1776.88	8.531	6.128
x1 = 0.5987	2003.6	1986.59	8.915	6.484
x1 = 0.6993	2229.07	2210.42	9.351	6.886
x1 = 0.799	2461.79	2441.56	9.836	7.336
x1 = 0.8992	2706	2684.21	10.38	7.862
x1 = 1	2963.2	2939.86	10.94	8.413

BrC(Br)C(Br)Br [1,1,2,2-tetrabromoethane] + CCCCCCO
[3]
Conditions	mass density, 293.15 K [kg/m3]	mass density, 303.15 K [kg/m3]	viscosity, 293.15 K [mPa·s]	viscosity, 303.15 K [mPa·s]
x1 = 0.1001	1021.6	1012.63	5.764	4.031
x1 = 0.2007	1227.75	1216.94	6.116	4.348
x1 = 0.3004	1434.26	1421.62	6.633	4.709
x1 = 0.4004	1643.89	1629.48	7.123	5.112
x1 = 0.5005	1856.54	1840.42	7.644	5.542
x1 = 0.6008	2072.22	2054.51	8.195	6.009
x1 = 0.6999	2288.24	2269.06	8.786	6.508
x1 = 0.8012	2512.37	2491.76	9.433	7.068
x1 = 0.9001	2734.51	2712.53	10.14	7.699
x1 = 1	2963.2	2939.86	10.94	8.413

BrC(Br)C(Br)Br [1,1,2,2-tetrabromoethane] + CCCCCO
[3]
Conditions	mass density, 293.15 K [kg/m3]	mass density, 303.15 K [kg/m3]	viscosity, 293.15 K [mPa·s]	viscosity, 303.15 K [mPa·s]
x1 = 0.1009	1048.36	1038.85	4.543	3.24
x1 = 0.2014	1276.63	1265.1	5.078	3.639
x1 = 0.3004	1497.47	1484.08	5.653	4.078
x1 = 0.4003	1716.5	1701.36	6.278	4.563
x1 = 0.5014	1934.64	1917.88	6.942	5.089
x1 = 0.6001	2144.16	2125.93	7.621	5.631
x1 = 0.7001	2353.22	2333.58	8.346	6.217
x1 = 0.7998	2558.61	2537.64	9.119	6.846
x1 = 0.8997	2761.73	2739.49	9.968	7.555
x1 = 1	2963.2	2939.86	10.94	8.413

CCCCCCCCCCO [decan-1-ol]
Conditions	refractive index
[1]	1.43706

[2]
Conditions	mass density [kg/m3]	viscosity [mPa·s]
293.15 K	829.7	14.54
303.15 K	822.85	9.676

CCCCCCCCCCO [decan-1-ol] + BrC(Br)C(Br)Br
[3], x2 = 0
Conditions	mass density [kg/m3]	viscosity [mPa·s]
293.15 K	829.7	14.54
303.15 K	822.85	9.676

CCCCCCCO [heptan-1-ol]
Conditions	refractive index
[1]	1.42397

[2]
Conditions	mass density [kg/m3]	viscosity [mPa·s]
293.15 K	822.39	7.058
303.15 K	815.41	4.821

CCCCCCCO [heptan-1-ol] + BrC(Br)C(Br)Br
[3], x2 = 0
Conditions	mass density [kg/m3]	viscosity [mPa·s]
293.15 K	822.39	7.058
303.15 K	815.41	4.821

CCCCCCO [hexan-1-ol]
Conditions	refractive index
[1]	1.41826

[2]
Conditions	mass density [kg/m3]	viscosity [mPa·s]
293.15 K	818.92	5.37
303.15 K	811.73	3.744

CCCCCCO [hexan-1-ol] + BrC(Br)C(Br)Br
[3], x2 = 0
Conditions	mass density [kg/m3]	viscosity [mPa·s]
293.15 K	818.92	5.37
303.15 K	811.73	3.744

CCCCCCCCO [octan-1-ol]
Conditions	refractive index
[1]	1.42958

[2]
Conditions	mass density [kg/m3]	viscosity [mPa·s]
293.15 K	824.99	9.219
303.15 K	818.09	6.358

CCCCCCCCO [octan-1-ol] + BrC(Br)C(Br)Br
[3], x2 = 0
Conditions	mass density [kg/m3]	viscosity [mPa·s]
293.15 K	824.99	9.219
303.15 K	818.09	6.358

CCCCCO [pentan-1-ol]
Conditions	refractive index
[1]	1.40995

[2]
Conditions	mass density [kg/m3]	viscosity [mPa·s]
293.15 K	815.03	4.052
303.15 K	807.6	2.926

CCCCCO [pentan-1-ol] + BrC(Br)C(Br)Br
[3], x2 = 0
Conditions	mass density [kg/m3]	viscosity [mPa·s]
293.15 K	815.03	4.052
303.15 K	807.6	2.926
